The source of these data is patent publication US8420657B2 (Novartis AG, priority 2008, dated 2013).

Assay [1] has as its target T1, GST-JAK2(808-1132) (Homo sapiens, UniProt O60674).
T1 construct: GST-JAK2(808-1132); purchased Invitrogen (Carlsbad, USA) #4288
As to the kind of experiment: JAK2 kinase assay (Caliper mobility shift, LabChip 3000). Type of assay: biochemical. Summed up: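 Recombinant GST-JAK2(808-1132) kinase domain with FITC-labelled JAK3tide peptide substrate and ATP; 60 min at 30 °C, EDTA stop. Substrate/product ratio read by microfluidic mobility shift; compounds at 8 final concentrations, 10 to 0.003 μM.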

Assay [2] deals with JAK1/JAK2-dependent nuclear translocation of STAT1-GFP in HT1080 fibrosarcoma cells. As to the kind of experiment: STAT1 nuclear translocation assay (Cellomics), IFN-γ stimulated HT1080 STAT1-GFP cells. Type of assay: cell-based. Particulars: Homo sapiens, HT-1080, STAT1 translocation pathway. The gist of the method: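 HT1080 cells stably expressing STAT1-GFP, pre-treated 30 min with compound (10 μM–0.003 μM, 0.1% DMSO), then stimulated 2 h with 100 ng/ml IFN-γ, fixed and Hoechst-stained. Nuclear-cytoplasmic GFP differential imaged over ≥1000 cells/well, normalised to unstimulated and DMSO-stimulated wells for IC50.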

T1 sequence (O60674 808-1132): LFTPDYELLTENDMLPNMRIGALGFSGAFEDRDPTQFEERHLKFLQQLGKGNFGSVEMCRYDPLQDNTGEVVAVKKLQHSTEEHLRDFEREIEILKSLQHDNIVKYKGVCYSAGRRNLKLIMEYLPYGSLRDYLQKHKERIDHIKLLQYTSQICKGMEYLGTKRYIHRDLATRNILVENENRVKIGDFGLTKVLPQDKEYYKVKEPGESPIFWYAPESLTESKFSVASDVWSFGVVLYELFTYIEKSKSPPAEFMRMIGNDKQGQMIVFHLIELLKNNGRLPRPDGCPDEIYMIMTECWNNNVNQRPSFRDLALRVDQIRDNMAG

For orientation: IC50 means the concentration that gives 50% inhibition. `Cc1cc(Nc2ncc3ccn(-c4ccc(CN5CCOCC5)c(F)c4)c3n2)ccc1F` [Example 127, (4-Fluoro-3-methyl-phenyl)-[7-(3-fluoro-4-morpholin-4-ylmethyl-phenyl)-7H-pyrrolo[2,3-d]pyrimidin-2-yl]-amine]: the values for the IC50 in assay [1] and in assay [2] were 10.5 nM and 720 nM, respectively.

Turning to `Cc1ccc(Nc2ncc3ccn(-c4cc(F)c(CN5CCOCC5)c(F)c4)c3n2)cc1Cl` [Example 128, (3-Chloro-4-methyl-phenyl)-[7-(3,5-difluoro-4-morpholin-4-ylmethyl-phenyl)-7H-pyrrolo[2,3-d]pyrimidin-2-yl]-amine], the IC50 in assay [1] is 120 nM; in assay [2], 3680 nM.

For the compound `Cc1ccc(Nc2ncc3ccn(-c4cc(F)c(CN5CCS(=O)(=O)CC5)c(F)c4)c3n2)cc1Cl` [Example 129, (3-Chloro-4-methyl-phenyl)-{7-[4-(1,1-dioxido-thiomorpholin-4-ylmethyl)-3,5-difluoro-phenyl]-7H-pyrrolo[2,3-d]pyrimidin-2-yl}-amine], the IC50 in assay [1] was 9 nM; in assay [2], 471 nM.

For `CCN1CCN(Cc2c(F)cc(-n3ccc4cnc(Nc5ccc(C)c(Cl)c5)nc43)cc2F)CC1` [Example 130, (3-Chloro-4-methyl-phenyl)-{7-[4-(4-ethyl-piperazin-1-ylmethyl)-3,5-difluoro-phenyl]-7H-pyrrolo[2,3-d]pyrimidin-2-yl}-amine], the 50% inhibitory concentration (IC50) turned out to be 115 nM in assay [1] and 8410 nM in assay [2].

As to `Cc1cc(Nc2ncc3ccn(-c4cc(F)c(CN5CCOCC5)c(F)c4)c3n2)ccc1F` [Example 131, [7-(3,5-Difluoro-4-morpholin-4-ylmethyl-phenyl)-7H-pyrrolo[2,3-d]pyrimidin-2-yl]-(4-fluoro-3-methyl-phenyl)-amine], the concentration for half-maximal inhibition (IC50) came out at 16 nM in assay [1] and 1500 nM in assay [2].

Consider `CCN1CCN(Cc2c(F)cc(-n3ccc4cnc(Nc5ccc(F)c(C)c5)nc43)cc2F)CC1` [Example 132, {7-[4-(4-Ethyl-piperazin-1-ylmethyl)-3,5-difluoro-phenyl]-7H-pyrrolo[2,3-d]pyrimidin-2-yl}-(4-fluoro-3-methyl-phenyl)-amine], for which the 50% inhibitory concentration (IC50) in assay [1] was 40.5 nM; in assay [2] it was 6280 nM.

On to `CC(=O)N1CCN(Cc2c(F)cc(-n3ccc4cnc(Nc5ccc(F)c(C)c5)nc43)cc2F)CC1` [Example 133, 1-(4-{2,6-Difluoro-4-[2-(4-fluoro-3-methyl-phenylamino)-pyrrolo[2,3-d]pyrimidin-7-yl]-benzyl}-piperazin-1-yl)-ethanone], for which the IC50 in assay [1] was determined as 7.1 nM; in assay [2], 573 nM.

For `CCN1CCN(Cc2c(F)cc(-n3ccc4cnc(Nc5ccc(F)c(C)c5)nc43)cc2F)CC1=O` [Example 134, 4-{2,6-Difluoro-4-[2-(4-fluoro-3-methyl-phenylamino)-pyrrolo[2,3-d]pyrimidin-7-yl]-benzyl}-1-ethyl-piperazin-2-one], the concentration for half-maximal inhibition (IC50) in assay [1] stood at 20.5 nM; in assay [2], 1880 nM.

Consider `COCc1ccc(Nc2ncc3ccn(-c4cc(F)c(CN5CCOCC5)c(F)c4)c3n2)cc1` [Example 135, [7-(3,5-Difluoro-4-morpholin-4-ylmethyl-phenyl)-7H-pyrrolo[2,3-d]pyrimidin-2-yl]-(4-methoxymethyl-phenyl)-amine], for which the IC50 is 4.9 nM in assay [1] and 420 nM in assay [2].

As to `N#Cc1ccc(Nc2ncc3ccn(-c4cc(F)c(CN5CCOCC5)c(F)c4)c3n2)cc1` [Example 136, 4-[7-(3,5-Difluoro-4-morpholin-4-ylmethyl-phenyl)-7H-pyrrolo[2,3-d]pyrimidin-2-ylamino]-benzonitrile], the half-inhibitory concentration (IC50) was 11 nM in assay [1] and 775 nM in assay [2].

Consider `Cc1cc(Nc2ncc3ccn(-c4cc(F)c(CN5CCS(=O)(=O)CC5)c(F)c4)c3n2)ccc1F` [Example 137, {7-[4-(1,1-Dioxido-thiomorpholin-4-ylmethyl)-3,5-difluoro-phenyl]-7H-pyrrolo[2,3-d]pyrimidin-2-yl}-(4-fluoro-3-methyl-phenyl)-amin], for which the IC50 in assay [1] worked out at 3.3 nM; in assay [2] it was 150 nM.

For the compound `O=C(c1ccc(Nc2ncc3ccn(-c4cc(F)c(CN5CCOCC5)c(F)c4)c3n2)cc1)N1CCOCC1` [Example 138, {4-[7-(3,5-Difluoro-4-morpholin-4-ylmethyl-phenyl)-7H-pyrrolo[2,3-d]pyrimidin-2-ylamino]-phenyl}-morpholin-4-yl-methanone], the 50% inhibitory concentration (IC50) is below 3 nM in assay [1] and 165 nM in assay [2].

With `Cc1ccc(Nc2ncc3ccn(-c4ccc(C[S+](C)[O-])cc4)c3n2)cc1` (stereo not drawn) [Example 139, [7-(4-Methanesulfinylmethyl-phenyl)-7H-pyrrolo[2,3-d]pyrimidin-2-yl]-p-tolyl-amine], the IC50 in assay [1] stood at 11 nM; in assay [2], 630 nM.

As for `Cc1ccc(Nc2ncc3ccn(-c4ccc(CS(C)(=O)=O)cc4)c3n2)cc1` [Example 140, [7-(4-Methanesulfonylmethyl-phenyl)-7H-pyrrolo[2,3-d]pyrimidin-2-yl]-p-tolyl-amine], the IC50 is 4.5 nM in assay [1] and 310 nM in assay [2].

As for `Cc1ccc(Nc2ncc3ccn(-c4ccc(CC(=O)N5CCOCC5)cc4)c3n2)cc1` [Example 141, 1-Morpholin-4-yl-2-[4-(2-p-tolylamino-pyrrolo[2,3-d]pyrimidin-7-yl)-phenyl]-ethanone], the half-inhibitory concentration (IC50) in assay [1] is below 3 nM; in assay [2] it was 130 nM.

In the case of `COc1cc(Nc2ncc3ccn(-c4ccc(CC(=O)N5CCOCC5)cc4)c3n2)ccc1F` [Example 142, 2-{4-[2-(4-Fluoro-3-methoxy-phenylamino)-pyrrolo[2,3-d]pyrimidin-7-yl]-phenyl}-1-morpholin-4-yl-ethanone], the half-inhibitory concentration (IC50) was below 3 nM in assay [1] and 101 nM in assay [2].

Consider `O=C(Cc1ccc(-n2ccc3cnc(Nc4ccccc4)nc32)cc1)N1CCOCC1` [Example 143, 1-Morpholin-4-yl-2-[4-(2-phenylamino-pyrrolo[2,3-d]pyrimidin-7-yl)-phenyl]-ethanone], for which the 50% inhibitory concentration (IC50) in assay [1] is below 3 nM; in assay [2], 195 nM.

In the case of `O=C(Cc1ccc(-n2ccc3cnc(Nc4ccc(C(F)(F)F)cc4)nc32)cc1)N1CCOCC1` [Example 144, 1-Morpholin-4-yl-2-{4-[2-(4-trifluoromethyl-phenylamino)-pyrrolo[2,3-d]pyrimidin-7-yl]-phenyl}-ethanone], the half-maximal inhibitory concentration (IC50) in assay [1] was 4.7 nM; in assay [2] it was 475 nM.

Consider `CN1CCN(C(=O)Cc2ccc(-n3ccc4cnc(Nc5ccc(C(F)(F)F)cc5)nc43)cc2)CC1` [Example 145, 1-(4-Methyl-piperazin-1-yl)-2-{4-[2-(4-trifluoromethyl-phenylamino)-pyrrolo[2,3-d]pyrimidin-7-yl]-phenyl}-ethanone], for which the IC50 in assay [1] was found to be 7 nM; in assay [2], 365 nM.

With `Cc1ccc(Nc2ncc3ccn(-c4ccc(CN5CCOCC5)cc4)c3n2)cc1` [Example 146, [7-(4-Morpholin-4-ylmethyl-phenyl)-7H-pyrrolo[2 3-d]pyrimidin-2-yl]-p-tolyl-amine], the figures for the IC50 in assay [1] and in assay [2] were 30 nM and 2510 nM, respectively.

As to `CCOc1ccc(Nc2ncc3ccn(-c4ccc(CN5CCOCC5)cc4)c3n2)cc1OCC` [Example 147, (3,4-Diethoxy-phenyl)-[7-(4-morpholin-4-ylmethyl-phenyl)-7H-pyrrolo[2,3-d]pyrimidin-2-yl]-amine], the IC50 in assay [1] was below 3 nM; in assay [2], 33 nM.

With `Cc1ccc(Nc2ncc3ccn(-c4ccc(CC(=O)N5CCN(C)CC5)cc4)c3n2)cc1C` [Example 148, 2-{4-[2-(3,4-Dimethyl-phenylamino)-pyrrolo[2,3-d]pyrimidin-7-yl]-phenyl}-1-(4-methyl-piperazin-1-yl)-ethanone], the IC50 in assay [1] came to 7.9 nM; in assay [2], 47 nM.

Take `Cc1ccc(Nc2ncc3ccn(-c4ccc(CC(=O)N5CCN(C)CC5)cc4)c3n2)cc1` [Example 149, 1-(4-Methyl-piperazin-1-yl)-2-[4-(2-p-tolylamino-pyrrolo[2,3-d]pyrimidin-7-yl)-phenyl]-ethanone]: the IC50 in assay [1] turned out to be 130 nM; in assay [2], 1510 nM.

As for `COc1cc(Nc2ncc3ccn(-c4ccc(CC(=O)N5CCN(C)CC5)cc4)c3n2)ccc1F` [Example 150, 2-{4-[2-(4-Fluoro-3-methoxy-phenylamino)-pyrrolo[2,3-d]pyrimidin-7-yl]-phenyl}-1-(4-methyl-piperazin-1-yl)-ethanone], the half-maximal inhibitory concentration (IC50) is 4.5 nM in assay [1] and 64.5 nM in assay [2].

On to `Cc1ccc(Nc2ncc3ccn(-c4ccc(C(=O)N5CCOCC5)c(F)c4)c3n2)cc1C` [Example 152, {4-[2-(3,4-Dimethyl-phenylamino)-pyrrolo[2,3-d]pyrimidin-7-yl]-2-fluoro-phenyl}-morpholin-4-yl-methanone], for which the IC50 in assay [1] came out at 3.5 nM; in assay [2] it was 168 nM.

As to `O=C(c1ccc(Nc2ncc3ccn(-c4ccc(CN5CCS(=O)(=O)CC5)cc4)c3n2)cc1)N1CCOCC1` [Example 153, (4-{7-[4-(1,1-Dioxido-thiomorpholin-4-ylmethyl)-phenyl]-7H-pyrrolo[2,3-d]pyrimidin-2-ylamino}-phenyl)-morpholin-4-yl-methanone], the half-maximal inhibitory concentration (IC50) in assay [1] is below 3 nM; in assay [2], 17.5 nM.

Regarding `COc1cc(Nc2ncc3ccn(-c4ccc(C(=O)N5CCN(C)CC5)c(F)c4)c3n2)ccc1F` [Example 154, {2-Fluoro-4-[2-(4-fluoro-3-methoxy-phenylamino)-pyrrolo[2,3-d]pyrimidin-7-yl]-phenyl}-(4-methyl-piperazin-1-yl)-methanone], the results for the half-maximal inhibitory concentration (IC50) in assay [1] and in assay [2] were 250 nM and 6440 nM, respectively.
